Data reported in PMC9000710, “Synthesis and Hemostatic Activity of New Amide Derivatives” (Molecules, 2022).
Structures can show the parent of a compound that is named as a salt.

Row | melting point | SMILES
1 | 195 to 197 °C | NCCCCCC(=O)NCC1CCC(C(=O)O)CC1 (centres unmarked) (as salt: hydrochloride) [Amide 3, 6-((((1s,4s)-4-Carboxycyclohexyl)methyl)amino)-6-oxohexan-1-aminium chloride]
2 | 221 to 224 °C | NCC(=O)NCC1CCC(C(=O)O)CC1 (centres unmarked) (as salt: hydrochloride) [Amide 7, 2-((((1s,4s)-4-Carboxycyclohexyl)methyl)amino)-2-oxoethanaminium chloride]
